System: CT26 colorectal cancer model
Assay: Study S010516: merestinib and anti-PD-L1 antibody combinations in CT26 syngeneic mouse tumor model
Assay type: in vivo
Parameters: key to Mean Tumor Volume: mm³; tumor volume v = l×w²×0.536
Settings: for Mean Tumor Volume: in mm³ (unit assumed)
Experimental: A syngeneic mouse tumor model is used to evaluate potential combination effect of merestinib and anti-PD-L1 antibody is the CT26 colorectal cancer model using the mouse colorectal cancer line CT26. This experiment is conducted in immune competent mice (Grosso and Jure-Kunkel, Cancer Immunity Vol. 13, p. 5, January 2013; Duraiswamy et al, Cancer Research, Jun. 15, 2013 73; 3591.). Anti-PD-L1 antibody surrogate (178G7, LSN3370181) (Eppihimer et al. Microcirculation 2002:9(2):133) is used in the mouse study.
Female BALB/c mice (18-20 gm) from Envigo (Harlan Laboratories) are used for this study. Food and water are available ad libitum. Animals are acclimated for one week prior to any experimental manipulation. The study is performed in accordance with AALAC accredited institutional guidelines.
Merestinib is formulated as a solution in 10% PEG 400 in 90% (20% Captisol in water) once weekly. Anti-PD-L1 antibody (178G7, LSN3370181) is formulated in PBS (phosphate buffered saline).
CT26 cells (from internal in vivo pharmacology cell culture group lot CT26.WT.3184878) are used for implantation. Approximately 1×10^6 cells in HBSS are implanted subcutaneously into the right hind flank of the animal under anesthesia.
Study S010516 has six groups: 1) vehicle control (10% PEG 400 in 90% [20% Captisol in water]) dosed orally once daily for 21 days and dosing initiated at Day 6 post-implant of CT26 cells; 2) single agent anti-PD-L1 antibody (178G7, LSN3370181) dosing via IP at 500 μg/animal once weekly for 3 weeks initiated at Day 6 post-implant of CT26 cells; 3) single agent merestinib at 12 mg/kg once daily orally for 21 days and initiated at Day 6 post-implant of CT26 cells; 4) concurrent combination of merestinib (12 mg/kg once daily for 21 days orally) and anti-PD-L1 antibody (500 μg/animal once weekly via IP for 3 weeks) and initiated at Day 6 post-implant of CT26 cells; 5) sequential combination of merestinib (12 mg/kg once daily for 21 days orally and initiated at Day 6 post-implant of CT26 cells) and anti-PD-L1 antibody (500 μg/animal once weekly via IP for 3 weeks and initiated at Day 13 post-implant of CT26 cells); 6) delayed concurrent combination of merestinib (12 mg/kg once daily for 21 days orally) and anti-PD-L1 antibody (500 μg/animal once weekly via IP for 3 weeks) and initiated at Day 10 post-implant of CT26 cells.
There are 15 animals per group. Five animals per group are taken down on Day 20 post-implant of CT26 cells for the harvesting of spleens and tumors for the interrogation of the effect of the combination of merestinib and anti-PD-L1 antibody combination on immune functions. Ten animals per group remain for the duration of the study unless, as pre-defined in the study protocol, the animal is to be sacrificed if the tumor volume exceeds 2500 mm^3 or is ulcerated. Tumor volumes and body weight are measured bi-weekly. Tumor volume is estimated by using the formula: v=l×w2×0.536 where l=larger of measured diameter and w=smaller of perpendicular diameter.
The last dose of drug is received on Day 20, Day 27, Day 27, Day 27 and Day 31, respectively, for group 2, group 3, group 4, group 5 and group 6. On Day 64, about 1 month to 1.5 months after completing drug-dosing, animals that are still alive and with tumor response classified as PR (partial responder) or CR (complete responder) are re-challenged with a new implantation of CT26 tumor cells (1×10^6 cells in HBSS) subcutaneously into the contralateral side of the hind flank (left side) of the animal under anesthesia. The definition of PR and CR is in the statistical method section below. Three naïve animals (study protocol S035116) are used as control and are implanted with the same batch of CT26 tumor cells (1×10^6 cells in HBSS) subcutaneously into the left hind flank of the animal under anesthesia. Tumor growth is monitored and measured in the animals. […]

[1] = animals of 10/group, tumor volume ≤25 mm^3

Cc1ccc(C(=O)Nc2ccc(Oc3cc4cnn(C)c4cc3-c3cn[nH]c3)c(F)c2)c(=O)n1-c1ccc(F)cc1 [merestinib, N-(3-fluoro-4-(1-methyl-6-(1H-pyrazol-4-yl)-1H-indazol-5-yloxy)phenyl)-1-(4-fluorophenyl)-6-methyl-2-oxo-1,2-dihydropyridine-3-carboxamide]
tumor growth after cessation of dosing (12 mg/kg, after the 21 day dosing period, Days 33-40): grew exponentially
% Response (% ΔT/C above baseline, % Regression below baseline) (Day 8): −65.5%
Mean Tumor Volume (Day 8): 64.7
% Response (% ΔT/C above baseline, % Regression below baseline) (Day 12): −29.4%
Mean Tumor Volume (Day 12): 132.5
% Response (% ΔT/C above baseline, % Regression below baseline) (Day 15): 14.6%
Mean Tumor Volume (Day 15): 206.6
% Response (% ΔT/C above baseline, % Regression below baseline) (Day 19): 53.7%
Mean Tumor Volume (Day 19): 357.7
% Response (% ΔT/C above baseline, % Regression below baseline) (Day 22): 35.6%
Mean Tumor Volume (Day 22): 491.5
% Response (% ΔT/C above baseline, % Regression below baseline) (Day 25): 31.3%
Mean Tumor Volume (Day 25): 717.0
% Response (% ΔT/C above baseline, % Regression below baseline) (Day 28): 24.8%
Mean Tumor Volume (Day 28): 845.3
% Response (% ΔT/C above baseline, % Regression below baseline) (Day 33): 27.1%
Mean Tumor Volume mm^3 (Day 33): 1609.0 mm^3
T/C % (Day 33): 31.2%
anti-tumor effect as compared to vehicle control (Day 33 / end of dosing): significant anti-tumor effect
Difference (Treatment 1 − Treatment 2), log scale tumor volume (Day 33, Treatment 1 = Vehicle control): 0.529
Mean Tumor Volume (Day 33): 1608.2
Day 33 Treatment Responders GD (Growth Delay) (animals of 10/group): 1
Day 33 Treatment Responders PD (Progressive Disease) (animals of 10/group): 9
Day 33 Treatment Responders PR (Partial Response) (animals of 10/group): 0
Day 64 Treatment Responders GD (Growth Delay) (animals of 10/group): 1
Day 64 Treatment Responders PD (Progressive Disease) (animals of 10/group): 9
Day 64 Treatment Responders PR (Partial Response) (animals of 10/group): 0
Day 33 Treatment Responders CR (Complete and durable Regression) [1]: 0
Day 64 Treatment Responders CR (Complete and durable Regression) [1]: 0
